Experimental data published in patent US20080063668A1, “Nitroimidazole and terconazole composition and method” (priority 2006, published 2008).

Columns and labels:
[1] = system: Bacteroides fragilis ATCC 25285; assay: Inhibition of bacteria growth, drug dilution tubes, anaerobic; type: cell-based; set-up: key: (+) for growth; (−) for no growth; (±) for suboptimal growth after an initial observation of growth
Protocol: (§1) Serial dilutions of tinidazole and terconazole were prepared by adding measured amounts of each substance to water (both individually and in combination). Seven bacterial organisms that are common pathogens in bacterial vaginosis were grown anaerobically in the medium as listed in Table 4 under a N2/H2/CO2 (85:5:10) head space atmosphere. [table] These cultures were diluted to a 0.5 McFarland standard prior to inoculation of drug dilution tubes. One (1) mL of the 0.5 McFarland preparation was inoculated to an anaerobically prepared test tube containing 0.8 mL of Difco anaerobic medium (DAMM) and 0.2 mL of appropriate diluted antimicrobial or antimicrobial combination for a total of 2 mL. The inoculated tubes were then incubated at 37° C. and monitored daily for growth. Growth was scored with a (+) for growth, (−) for no growth, and (±) for suboptimal growth after an initial observation of growth. Tinidazole is abbreviated as TNZ and terconazole is abbreviated as TER in Tables 5 through 11.

[2] = system: Gardnerella vaginalis ATCC 14018; assay: as above; type: cell-based; set-up: key: (+) for growth; (−) for no growth; (±) for suboptimal growth after an initial observation of growth
Protocol: as §1

[3] = system: Mobiluncus curtisii var. holmesii ATCC 35242; assay: as above; type: cell-based; set-up: key: (+) for growth; (−) for no growth; (±) for suboptimal growth after an initial observation of growth
Protocol: as §1

[4] = neutral pH; cited from earlier work

CC(C)N1CCN(c2ccc(OCC3COC(Cn4cncn4)(c4ccc(Cl)cc4Cl)O3)cc2)CC1 (stereo not drawn) [TER, cis-1-[p[[2-(2,4-dichlorophenyl)-2-(1 H-1,2,4-triazol-1-ylmethyl)-1,3-dioxolan-4-yl]methoxy]phenyl]-4-isopropylpiperazine]
growth ([1]; TER 3.1 μg/ml, DAY 1): (+) | growth ([1]; TER 3.1 μg/ml, DAY 2): (+) | growth ([1]; TER 3.1 μg/ml, DAY 3): (+) | growth ([1]; TER 3.1 μg/ml, DAY 4): (+) | growth ([1]; TER 3.1 μg/ml, DAY 5): (+) | growth ([1]; TER 6.2 μg/ml, DAY 1): (+) | growth ([1]; TER 6.2 μg/ml, DAY 2): (+) | growth ([1]; TER 6.2 μg/ml, DAY 3): (+) | growth ([1]; TER 6.2 μg/ml, DAY 4): (+) | growth ([1]; TER 6.2 μg/ml, DAY 5): (+) | growth ([1]; TER 12.5 μg/ml, DAY 1): (+) | growth ([1]; TER 12.5 μg/ml, DAY 2): (+) | growth ([1]; TER 12.5 μg/ml, DAY 3): (+) | growth ([1]; TER 12.5 μg/ml, DAY 4): (+) | growth ([1]; TER 12.5 μg/ml, DAY 5): (+) | growth ([1]; TER 25 μg/ml, DAY 1): (+) | growth ([1]; TER 25 μg/ml, DAY 2): (+) | growth ([1]; TER 25 μg/ml, DAY 3): (+) | growth ([1]; TER 25 μg/ml, DAY 4): (+) | growth ([1]; TER 25 μg/ml, DAY 5): (+) | growth ([1]; TER 50 μg/ml, DAY 1): (+) | growth ([1]; TER 50 μg/ml, DAY 2): (+) | growth ([1]; TER 50 μg/ml, DAY 3): (+) | growth ([1]; TER 50 μg/ml, DAY 4): (+) | growth ([1]; TER 50 μg/ml, DAY 5): (+) | growth ([1]; TER 100 μg/ml, DAY 1): (+) | growth ([1]; TER 100 μg/ml, DAY 2): (+) | growth ([1]; TER 100 μg/ml, DAY 3): (+) | growth ([1]; TER 100 μg/ml, DAY 4): (+) | growth ([1]; TER 100 μg/ml, DAY 5): (+) | growth ([1]; TER 200 μg/ml, DAY 1): (−) | growth ([1]; TER 200 μg/ml, DAY 2): (−) | growth ([1]; TER 200 μg/ml, DAY 3): (+) | growth ([1]; TER 200 μg/ml, DAY 4): (+) | growth ([1]; TER 200 μg/ml, DAY 5): (+) | growth ([1]; TER 400 μg/ml, DAY 1): (−) | growth ([1]; TER 400 μg/ml, DAY 2): (−) | growth ([1]; TER 400 μg/ml, DAY 3): (−) | growth ([1]; TER 400 μg/ml, DAY 4): (−) | growth ([1]; TER 400 μg/ml, DAY 5): (−) | growth ([1]; TER 800 μg/ml, DAY 1): (−) | growth ([1]; TER 800 μg/ml, DAY 2): (−) | growth ([1]; TER 800 μg/ml, DAY 3): (−) | growth ([1]; TER 800 μg/ml, DAY 4): (−) | growth ([1]; TER 800 μg/ml, DAY 5): (−) | growth ([2]; TER 3.1 μg/ml, DAY 1): (+) | growth ([2]; TER 3.1 μg/ml, DAY 2): (+) | growth ([2]; TER 3.1 μg/ml, DAY 3): (+) | growth ([2]; TER 3.1 μg/ml, DAY 4): (+) | growth ([2]; TER 3.1 μg/ml, DAY 5): (+) | growth ([2]; TER 6.2 μg/ml, DAY 1): (+) | growth ([2]; TER 6.2 μg/ml, DAY 2): (+) | growth ([2]; TER 6.2 μg/ml, DAY 3): (+) | growth ([2]; TER 6.2 μg/ml, DAY 4): (+) | growth ([2]; TER 6.2 μg/ml, DAY 5): (+) | growth ([2]; TER 12.5 μg/ml, DAY 1): (+) | growth ([2]; TER 12.5 μg/ml, DAY 2): (+) | growth ([2]; TER 12.5 μg/ml, DAY 3): (+) | growth ([2]; TER 12.5 μg/ml, DAY 4): (+) | growth ([2]; TER 12.5 μg/ml, DAY 5): (+) | growth ([2]; TER 25 μg/ml, DAY 1): (+) | growth ([2]; TER 25 μg/ml, DAY 2): (+) | growth ([2]; TER 25 μg/ml, DAY 3): (+) | growth ([2]; TER 25 μg/ml, DAY 4): (+) | growth ([2]; TER 25 μg/ml, DAY 5): (+) | growth ([2]; TER 50 μg/ml, DAY 1): (+) | growth ([2]; TER 50 μg/ml, DAY 2): (+) | growth ([2]; TER 50 μg/ml, DAY 3): (+) | growth ([2]; TER 50 μg/ml, DAY 4): (+) | growth ([2]; TER 50 μg/ml, DAY 5): (+) | growth ([2]; TER 100 μg/ml, DAY 1): (+) | growth ([2]; TER 100 μg/ml, DAY 2): (+) | growth ([2]; TER 100 μg/ml, DAY 3): (+) | growth ([2]; TER 100 μg/ml, DAY 4): (+) | growth ([2]; TER 100 μg/ml, DAY 5): (+) | growth ([2]; TER 200 μg/ml, DAY 1): (−) | growth ([2]; TER 200 μg/ml, DAY 2): (+) | growth ([2]; TER 200 μg/ml, DAY 3): (+) | growth ([2]; TER 200 μg/ml, DAY 4): (+) | growth ([2]; TER 200 μg/ml, DAY 5): (+) | growth ([2]; TER 400 μg/ml, DAY 1): (−) | growth ([2]; TER 400 μg/ml, DAY 2): (−) | growth ([2]; TER 400 μg/ml, DAY 3): (−) | growth ([2]; TER 400 μg/ml, DAY 4): (−) | growth ([2]; TER 400 μg/ml, DAY 5): (−) | growth ([2]; TER 800 μg/ml, DAY 1): (−) | growth ([2]; TER 800 μg/ml, DAY 2): (−) | growth ([2]; TER 800 μg/ml, DAY 3): (−) | growth ([2]; TER 800 μg/ml, DAY 4): (−) | growth ([2]; TER 800 μg/ml, DAY 5): (−) | growth ([3]; TER 3.1 μg/ml, DAY 1): (+) | growth ([3]; TER 3.1 μg/ml, DAY 2): (+) | growth ([3]; TER 3.1 μg/ml, DAY 3): (+) | growth ([3]; TER 3.1 μg/ml, DAY 4): (+) | growth ([3]; TER 3.1 μg/ml, DAY 5): (+) | growth ([3]; TER 6.2 μg/ml, DAY 1): (+) | growth ([3]; TER 6.2 μg/ml, DAY 2): (+) | growth ([3]; TER 6.2 μg/ml, DAY 3): (+) | growth ([3]; TER 6.2 μg/ml, DAY 4): (+) | growth ([3]; TER 6.2 μg/ml, DAY 5): (+) | growth ([3]; TER 12.5 μg/ml, DAY 1): (+) | growth ([3]; TER 12.5 μg/ml, DAY 2): (+) | growth ([3]; TER 12.5 μg/ml, DAY 3): (+) | growth ([3]; TER 12.5 μg/ml, DAY 4): (+) | growth ([3]; TER 12.5 μg/ml, DAY 5): (+) | growth ([3]; TER 25 μg/ml, DAY 1): (+) | growth ([3]; TER 25 μg/ml, DAY 2): (+) | growth ([3]; TER 25 μg/ml, DAY 3): (+) | growth ([3]; TER 25 μg/ml, DAY 4): (+) | growth ([3]; TER 25 μg/ml, DAY 5): (+) | growth ([3]; TER 50 μg/ml, DAY 1): (+) | growth ([3]; TER 50 μg/ml, DAY 2): (+) | growth ([3]; TER 50 μg/ml, DAY 3): (+) | growth ([3]; TER 50 μg/ml, DAY 4): (+) | growth ([3]; TER 50 μg/ml, DAY 5): (+) | growth ([3]; TER 100 μg/ml, DAY 1): (+) | growth ([3]; TER 100 μg/ml, DAY 2): (+) | growth ([3]; TER 100 μg/ml, DAY 3): (+) | growth ([3]; TER 100 μg/ml, DAY 4): (+) | growth ([3]; TER 100 μg/ml, DAY 5): (+) | growth ([3]; TER 200 μg/ml, DAY 1): (+) | growth ([3]; TER 200 μg/ml, DAY 5): (+) | growth ([3]; TER 400 μg/ml, DAY 1): (+) | growth ([3]; TER 400 μg/ml, DAY 5): (+) | growth ([3]; TER 800 μg/ml, DAY 1): (+) | growth ([3]; TER 800 μg/ml, DAY 5): (+) | solubility in water (in words) [4]: substantially insoluble
